Assay results reported in US12565475B2, “Small molecule compound inhibiting signal transmission path of TLR7 and TLR9 and use thereof” (AJOU UNIVERSITY INDUSTRY-ACADEMIC COOPERATION FOUNDATION, priority 2019, dated 2026).
Entries after “also recorded” stand apart in the source; their conditions may differ.

Experiments:
Assay type in all cases: cell-based, murine
TLR7 = target: T1, TLR7 (Mus musculus, UniProt P58681); test: TLR7-mediated TNF-α secretion (imiquimod stimulation), ELISA
T1 construct: endogenous in cells; host or cells: RAW 264.7
T1 sequence (P58681 27-1050): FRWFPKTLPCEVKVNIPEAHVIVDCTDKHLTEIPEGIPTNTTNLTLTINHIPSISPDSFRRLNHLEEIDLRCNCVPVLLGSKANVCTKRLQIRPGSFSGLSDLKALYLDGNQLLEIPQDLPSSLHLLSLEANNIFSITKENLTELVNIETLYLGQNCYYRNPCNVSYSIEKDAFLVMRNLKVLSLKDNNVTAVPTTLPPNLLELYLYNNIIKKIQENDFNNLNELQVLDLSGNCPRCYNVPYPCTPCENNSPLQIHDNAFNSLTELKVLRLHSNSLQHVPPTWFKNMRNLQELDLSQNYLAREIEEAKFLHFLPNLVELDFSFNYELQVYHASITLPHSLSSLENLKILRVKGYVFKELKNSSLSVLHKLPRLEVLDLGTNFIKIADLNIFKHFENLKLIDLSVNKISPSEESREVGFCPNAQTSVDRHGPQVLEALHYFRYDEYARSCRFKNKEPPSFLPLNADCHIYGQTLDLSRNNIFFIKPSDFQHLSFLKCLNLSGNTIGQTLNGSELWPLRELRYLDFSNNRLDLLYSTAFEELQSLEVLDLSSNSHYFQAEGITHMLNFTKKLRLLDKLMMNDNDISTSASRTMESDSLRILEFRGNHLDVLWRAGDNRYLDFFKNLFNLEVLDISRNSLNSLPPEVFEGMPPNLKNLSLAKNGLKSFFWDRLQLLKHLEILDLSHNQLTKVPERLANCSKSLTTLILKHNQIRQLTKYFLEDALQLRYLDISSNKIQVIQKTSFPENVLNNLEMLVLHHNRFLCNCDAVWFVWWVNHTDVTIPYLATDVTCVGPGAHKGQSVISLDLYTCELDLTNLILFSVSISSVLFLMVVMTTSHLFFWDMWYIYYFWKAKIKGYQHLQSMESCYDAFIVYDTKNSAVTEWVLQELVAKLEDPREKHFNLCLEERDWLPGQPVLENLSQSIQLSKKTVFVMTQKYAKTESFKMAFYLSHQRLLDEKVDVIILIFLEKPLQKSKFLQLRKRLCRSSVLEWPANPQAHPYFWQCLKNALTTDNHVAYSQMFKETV
Method: (§1) Agonists specific to TLR1/TLR2 (Pam3CSK4), TLR2/TLR6 (FSL-1), TLR3 (Poly I:C), TLR7 (imiquimod), and TLR8 (TL8-506) were purchased from InvivoGen Ltd. (Hong-Kong, China), and a TLR4-specific agonist (LPS from E. coli O111:B4) was purchased from Sigma-Aldrich, Inc. For TLR9-specific stimulation, class C CpG-ODN (ODN2395, 5′-TCGTCGTTTTCGGCGCGCGCCG-3′) having full phosphorothioate backbone modification was synthesized (Bioneer, Inc., Daejeon, Korea). All TLR agonists were dissolved in deionized water and applied to a culture media for TLR activation. The cells were treated with test compounds or a control medium for 1 hour, and then stimulated with a TLR agonist for 4 hours, or 24 hours in the case of poly(I:C), and the cytokine secretion was monitored.
(§2) RAW 264.7 or differentiated THP-1 cell lines were seeded onto a 96-well culture plate at a density of 2×10^4 cells/well. The cells were treated with test compounds for 1 hour followed by the stimulation with TLR agonists for 4 hours. The supernatant was transferred to pre-coated assay plates, and the secretion levels of mouse and human TNF-α were measured by respective ELISA kits (Invitrogen, Carlsbad, CA, USA). All experiments were performed according to the manufacturer's instructions. Absorbance was measured by a microplate reader spectrophotometer (Molecular Devices, Inc., San Jose, CA, USA), and data was interpolated from a standard curve using SoftMax Pro 5.3 software (Molecular Devices, Inc.).
In order to evaluate the antagonistic effect of each compound on TLR7/TLR9 through ELISA (enzyme-linked immunosorbent assay), RAW 264.7 cells were pretreated with the eight compounds followed by the stimulation with a TLR7-specific agonist (imiquimod, 3.61 μM) or with a TLR9-specific agonist (ODN2395, 0.5 μM). […] Since the two ligands had no agonistic effect per se (FIG. 3B), the increased cytokine production may be due to cell activation (or non-specific cellular stress) by co-treatment. Consequently, TIC10 was selected as the most suitable lead for further optimization to improve the inhibitory potency against both TLR7 and TLR9.

[1] = system: phosphorylation of MAPK (JNK, p38-MAPK, ERK) and p65 subunit of NF-κB; test: Western blot of NF-κB p65 and MAPK phosphorylation after ODN2395 stimulation; details: RAW 264.7, 20 μM, ODN2395 stimulation 15 min and 30 min
Method: RAW 264.7 cells were seeded into a 60 mm cell culture dish at a density of 2×10^6 cells/dish, and treated with test compounds followed by TLR agonists. The cell lysate was harvested through mammalian protein extraction kit (M-PER; Thermo Fisher Scientific, Inc.) with the protease and phosphatase inhibitor cocktail (Thermo Fisher Scientific, Inc.), and the protein levels were quantified using a bicinchoninic acid assay (Sigma-Aldrich, Co.). Protein samples were separated by SDS-PAGE and transferred to nitrocellulose membranes (GE Healthcare, Inc., Chicago, IL, USA). The membranes were incubated with primary antibodies specific to phospho-JNK (Cell Signaling Technology, Inc., Danvers, MA, USA), phospho-ERK (Santa Cruz Biotechnology, Inc., Dallas, TX, USA), phospho-p38-MAPK (Cell Signaling Technology, Inc.), phospho-p65 (Cell Signaling Technology, Inc.), or β-actin (Santa Cruz Biotechnology, Inc.). […] Protein levels were confirmed using a chemiluminescent substrate (SuperSignal™ West Pico PLUS, Thermo Fisher Scientific, Inc.) and a luminescence detection system (Fusion Solo S, VILBER, France).
In general, MYD88 recruitment by TLRs triggers the activation of the transcription factor NF-κB as well as the cell proliferation factor MAPK. […]

TLR1/2 = target: T2, TLR1/2 (Mus musculus, UniProt Q9EPQ1+Q9QUN7); test: TLR1/2-mediated TNF-α secretion (Pam3CSK4), ELISA; details: RAW 264.7, 10 or 20 μM
T2 construct: endogenous in cells; host or cells: RAW 264.7
T2 sequence (Q9EPQ1 26-795): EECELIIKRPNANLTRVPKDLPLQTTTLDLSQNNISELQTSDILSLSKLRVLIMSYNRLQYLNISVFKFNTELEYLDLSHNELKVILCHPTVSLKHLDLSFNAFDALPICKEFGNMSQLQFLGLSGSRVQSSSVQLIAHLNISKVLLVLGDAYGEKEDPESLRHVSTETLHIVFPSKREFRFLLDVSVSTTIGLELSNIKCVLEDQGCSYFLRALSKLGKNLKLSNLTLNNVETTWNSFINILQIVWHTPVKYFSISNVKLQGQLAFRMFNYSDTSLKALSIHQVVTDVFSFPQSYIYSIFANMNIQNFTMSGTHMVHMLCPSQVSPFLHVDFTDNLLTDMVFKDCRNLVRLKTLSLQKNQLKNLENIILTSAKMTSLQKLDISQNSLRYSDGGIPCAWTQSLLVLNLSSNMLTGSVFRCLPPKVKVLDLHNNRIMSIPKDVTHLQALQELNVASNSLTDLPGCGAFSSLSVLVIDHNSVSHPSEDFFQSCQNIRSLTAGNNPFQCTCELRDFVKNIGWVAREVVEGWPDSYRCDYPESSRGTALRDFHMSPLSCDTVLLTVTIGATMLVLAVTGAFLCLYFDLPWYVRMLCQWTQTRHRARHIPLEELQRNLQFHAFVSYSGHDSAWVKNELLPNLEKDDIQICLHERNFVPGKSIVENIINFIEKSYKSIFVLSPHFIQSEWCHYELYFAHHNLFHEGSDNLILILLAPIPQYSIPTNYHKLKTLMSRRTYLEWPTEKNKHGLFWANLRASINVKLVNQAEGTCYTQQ
T2 sequence (Q9QUN7 25-784): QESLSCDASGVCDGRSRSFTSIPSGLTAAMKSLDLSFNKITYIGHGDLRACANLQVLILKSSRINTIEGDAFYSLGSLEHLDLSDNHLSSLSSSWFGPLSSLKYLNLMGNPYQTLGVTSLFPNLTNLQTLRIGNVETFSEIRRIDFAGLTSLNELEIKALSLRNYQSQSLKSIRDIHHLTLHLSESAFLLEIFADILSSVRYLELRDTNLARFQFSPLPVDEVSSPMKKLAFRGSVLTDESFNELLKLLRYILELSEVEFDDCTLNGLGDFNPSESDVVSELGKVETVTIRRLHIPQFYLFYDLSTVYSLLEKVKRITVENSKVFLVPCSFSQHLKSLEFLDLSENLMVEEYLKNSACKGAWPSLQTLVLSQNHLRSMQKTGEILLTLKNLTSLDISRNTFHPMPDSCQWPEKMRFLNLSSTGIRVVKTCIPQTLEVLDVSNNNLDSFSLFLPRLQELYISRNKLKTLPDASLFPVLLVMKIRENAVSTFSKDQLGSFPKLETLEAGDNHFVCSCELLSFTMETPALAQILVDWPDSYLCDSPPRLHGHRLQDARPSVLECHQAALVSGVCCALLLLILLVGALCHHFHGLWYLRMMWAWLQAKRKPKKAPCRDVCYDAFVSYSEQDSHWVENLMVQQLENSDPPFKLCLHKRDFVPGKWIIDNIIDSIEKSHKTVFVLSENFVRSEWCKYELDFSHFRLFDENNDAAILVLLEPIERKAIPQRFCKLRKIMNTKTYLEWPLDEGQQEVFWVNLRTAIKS
Method: as §1
as §2, with “All experiments were performed according to the manufacturer's instructions.” left out, “Inc.). […]” for “Inc.).”

Structure (SMILES): COc1ccc(CNc2ncc(-c3ccc4c(c3)OCO4)n2C)c(OC)c1 [TIC10-7, 5-(2H-1,3-benzodioxol-5-yl)-N-[(2,4-dimethoxyphenyl)methyl]-1-methyl-1H-imidazol-2-amine]
- TLR7-mediated TNF-α secretion (TLR7; RAW 264.7, 10 or 20 μM, imiquimod (receptor specificity, FIG. 6)): moderately reduced
- inhibitory efficacy on TLR7-mediated TNF-α secretion (TLR7; RAW 264.7, 10 or 50 μM, imiquimod (FIG. 4B)): improved inhibitory efficacy compared to TIC10; also recorded: to a greater extent as compared to the other derivatives
- IC50 (TLR7; RAW 264.7, imiquimod (FIG. 4D)): 6.79 µM
- phosphorylation of MAPK (JNK, p38-MAPK, and ERK) and the p65 subunit of NF-κB [1]: blocked the robust phosphorylation
- effect on TLR1/2-mediated cytokine (TNF-α) production (TLR1/2): no effect
